Measured values reported in patent US8530493B2, “Indolopyridines as Eg5 kinesin modulators” (4SC AG, priority 2006, dated 2013).

tested on: RKO p21 uninduced (proliferating) colon adenocarcinoma cells; test: Alamar Blue cell viability assay, RKO p21 uninduced (proliferating); format: cell-based; conditions: Homo sapiens, Table B3, anti-proliferative/cytotoxic activity, 72 hours, read-out: −log EC50 RKO p21 uninduced (proliferating) (converted)
In short: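 RKO p21 or p27 subclones grown without Ponasterone A, i.e. proliferating, exposed 24 h after seeding to semi-log compound dilutions in DMEM/10% FCS (1% DMSO controls) for 72 h at 37° C. Alamar Blue fluorescence (544/590 nm) read relative to untreated cells; EC50 from dose-response curves, given as −log EC50 (mol/l).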

Row | Compound | EC50
1 | CCOc1ccc2[nH]c3c(c2c1)C[C@@]1(C)C(=O)N(CCCN2CCN(C)CC2)C(=O)N1[C@@H]3c1cccc(O)c1 (racemic) [Example 229, (3aSR,10RS)-6-Ethoxy-10-(3-hydroxy-phenyl)-3a-methyl-2-[3-(4-methyl-piperazin-1-yl)-propyl]-3a,4,9,10-tetrahydro-2,9,10a-triaza-cyclopenta[b]fluorene-1,3-dione] | 39.8 to 251 nM
2 | COc1cc2c3c([nH]c2cc1F)[C@@H](c1cccc(O)c1)N1C(=O)N(CCNC(C)C)C(=O)[C@]1(C)C3 (racemic) [Example 250, (3aSR,10RS)-7-Fluoro-10-(3-hydroxy-phenyl)-2-(2-isopropylamino-ethyl)-6-methoxy-3a-methyl-3a,4,9,10-tetrahydro-2,9,10a-triaza-cyclopenta[b]fluorene-1,3-dione] | ≤ 39.8 nM
3 | CN(CCO)CCN1C(=O)N2[C@H](c3cccc(O)c3)c3[nH]c4ccc(OC(F)F)cc4c3C[C@@]2(C)C1=O (racemic) [Example 288, (3aSR,10RS)-6-(1,1-Difluoro-methoxy)-2-{2-[(2-hydroxy-ethyl)-methyl-amino]-ethyl}-10-(3-hydroxy-phenyl)-3a-methyl-3a,4,9,10-tetrahydro-2,9,10a-triaza-cyclopenta[b]fluorene-1,3-dione] | 39.8 to 251 nM
4 | CCOc1ccc2[nH]c3c(c2c1)C[C@@]1(C)C(=O)N(CCCN(C)C)C(=O)N1[C@@H]3c1cccc(O)c1 (racemic) [Example 226, (3aSR,10RS)-2-(3-Dimethylamino-propyl)-6-ethoxy-10-(3-hydroxy-phenyl)-3a-methyl-3a,4,9,10-tetrahydro-2,9,10a-triaza-cyclopenta[b]fluorene-1,3-dione] | 39.8 to 251 nM
5 | CCNCCN1C(=O)N2[C@H](c3cccc(O)c3)c3[nH]c4cc(F)c(Cl)cc4c3C[C@@]2(C)C1=O (racemic) [Example 338, (3aSR,10RS)-6-Chloro-2-(2-ethylamino-ethyl)-7-fluoro-10-(3-hydroxy-phenyl)-3a-methyl-3a,4,9,10-tetrahydro-2,9,10a-triaza-cyclopenta[b]fluorene-1,3-dione] | ≤ 39.8 nM
6 | CC(C)NCCCN1C(=O)N2[C@H](c3cccc(O)c3)c3[nH]c4cc(F)c(Cl)cc4c3C[C@@]2(C)C1=O (racemic) [Example 458, (3aSR,10RS)-6-Chloro-7-fluoro-10-(3-hydroxy-phenyl)-2-(3-isopropylamino-propyl)-3a-methyl-3a,4,9,10-tetrahydro-2,9,10a-triaza-cyclopenta[b]fluorene-1,3-dione] | 39.8 to 251 nM
7 | C=CCNCCN1C(=O)N2[C@H](c3cccc(O)c3)c3[nH]c4ccc(Br)cc4c3C[C@@]2(C)C1=O (racemic) [Example 383, (3aSR,10RS)-2-(2-Allylamino-ethyl)-6-bromo-10-(3-hydroxy-phenyl)-3a-methyl-3a,4,9,10-tetrahydro-2,9,10a-triaza-cyclopenta[b]fluorene-1,3-dione] | ≤ 39.8 nM
8 | C[C@@]12Cc3c([nH]c4ccc(Br)cc34)[C@@H](c3cccc(O)c3)N1C(=O)N(CCN1CCCC1)C2=O (racemic) [Example 389, (3aSR,10RS)-6-Bromo-10-(3-hydroxy-phenyl)-3a-methyl-2-(2-pyrrolidin-1-yl-ethyl)-3a,4,9,10-tetrahydro-2,9,10a-triaza-cyclopenta[b]fluorene-1,3-dione] | ≤ 39.8 nM
9 | CCOc1ccc2[nH]c3c(c2c1)C[C@@]1(C)C(=O)N(CCCNC)C(=O)N1[C@@H]3c1cccc(O)c1 (racemic) [Example 186, (3aSR,10RS)-6-Ethoxy-10-(3-hydroxy-phenyl)-3a-methyl-2-(3-methylamino-propyl)-3a,4,9,10-tetrahydro-2,9,10a-triaza-cyclopenta[b]fluorene-1,3-dione] | 39.8 to 251 nM
10 | CN(CCO)CCCN1C(=O)N2[C@H](c3cccc(O)c3)c3[nH]c4cc(F)c(Cl)cc4c3C[C@@]2(C)C1=O (racemic) [Example 468, (3aSR,10RS)-6-Chloro-7-fluoro-2-{3-[(2-hydroxy-ethyl)-methyl-amino]-propyl}-10-(3-hydroxy-phenyl)-3a-methyl-3a,4,9,10-tetrahydro-2,9,10a-triaza-cyclopenta[b]fluorene-1,3-dione] | ≤ 39.8 nM
11 | C=CCN(C)CCCN1C(=O)N2[C@H](c3cccc(O)c3)c3[nH]c4cc(F)c(OC)cc4c3C[C@@]2(C)C1=O (racemic) [Example 317, (3aSR,10RS)-2-[3-(Allyl-methyl-amino)-propyl]-7-fluoro-10-(3-hydroyx-phenyl)-6-methoxy-3a-methyl-3a,4,9,10-tetrahydro-2,9,10a-triaza-cyclopenta[b]fluorene-1,3-dione] | 39.8 to 251 nM
12 | C#CCNCCCN1C(=O)N2[C@H](c3cccc(O)c3)c3[nH]c4ccc(OCC)cc4c3C[C@@]2(C)C1=O (racemic) [Example 225, (3aSR,10RS)-6-Ethoxy-10-(3-hydroxy-phenyl)-3a-methyl-2-(3-prop-2-ynylamino-propyl)-3a,4,9,10-tetrahydro-2,9,10a-triaza-cyclopenta[b]fluorene-1,3-dione] | 39.8 to 251 nM
13 | CC(C)N(C)CCCN1C(=O)N2[C@H](c3cccc(O)c3)c3[nH]c4cc(F)c(Cl)cc4c3C[C@@]2(C)C1=O (racemic) [Example 474, (3aSR,10RS)-6-Chloro-7-fluoro-10-(3-hydroxy-phenyl)-2-[3-(isopropyl-methyl-amino)-propyl]-3a-methyl-3a,4,9,10-tetrahydro-2,9,10a-triaza-cyclopenta[b]fluorene-1,3-dione] | ≤ 39.8 nM
14 | CCNCCCN1C(=O)N2[C@H](c3cccc(O)c3)c3[nH]c4ccc(OC(F)F)cc4c3C[C@@]2(C)C1=O (racemic) [Example 204, (3aSR,10RS)-6-(1,1-Difluoro-methoxy)-2-(3-ethylamino-propyl)-10-(3-hydroxy-phenyl)-3a-methyl-3a,4,9,10-tetrahydro-2,9,10a-triaza-cyclopenta[b]fluorene-1,3-dione] | 39.8 to 251 nM
15 | CN1CCN(CCN2C(=O)N3[C@H](c4cccc(O)c4)c4[nH]c5cc(F)c(Cl)cc5c4C[C@@]3(C)C2=O)CC1 (racemic) [Example 359, (3aSR,10RS)-6-Chloro-7-fluoro-10-(3-hydroxy-phenyl)-3a-methyl-2-[2-(4-methyl-piperazin-1-yl)-ethyl]-3a,4,9,10-tetrahydro-2,9,10a--triaza-cyclopenta[b]fluorene-1,3-dione] | 39.8 to 251 nM
16 | CC(=O)N1CCN(CCCN2C(=O)N3[C@H](c4cccc(O)c4)c4[nH]c5cc(F)c(Cl)cc5c4C[C@@]3(C)C2=O)CC1 (racemic) [Example 482, (3aSR,10RS)-2-[3-(4-Acetyl-piperazin-1-yl)-propyl]-6-chloro-7-fluoro-10-(3-hydroxy-phenyl)-3a-methyl-3a,4,9,10-tetrahydro-2,9,10a-triaza-cyclopenta[b]fluorene-1,3-dione] | 39.8 to 251 nM
17 | COc1cc2c3c([nH]c2cc1F)[C@@H](c1cccc(O)c1)N1C(=O)N(CCCNCC2CC2)C(=O)[C@]1(C)C3 (racemic) [Example 304, (3aSR,10RS)-2-[3-(Cyclopropylmethyl-amino)-propyl]-7-fluoro-10-(3-hydroyx-phenyl)-6-methoxy-3a-methyl-3a,4,9,10-tetrahydro-2,9,10a-triaza-cyclopenta[b]fluorene-1,3-dione] | 39.8 to 251 nM
